Data reported in article PMC11602988 (The Journal of Biological Chemistry, 2024).
Residue numbers refer to the chain shown, from its start. Like-named read-outs stand apart in the source and are kept apart here.

How the values were obtained:
OCT1 Phe244Ala variant = target: T1, OCT1 Phe244Ala variant (Homo sapiens, UniProt O15245, F244A); test: Uptake screening (transport ratio over empty vector), HEK293 cells overexpressing OCT1 Phe244Ala variant; type: cell-based; design: expressed in transfected cells;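 also: stably transfected HEK293 cells, intracellular substrate quantified by HPLC-tandem mass spectrometry in cell lysates, uptake in HBSS+ buffer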
T1 sequence (O15245 1-554 F244A): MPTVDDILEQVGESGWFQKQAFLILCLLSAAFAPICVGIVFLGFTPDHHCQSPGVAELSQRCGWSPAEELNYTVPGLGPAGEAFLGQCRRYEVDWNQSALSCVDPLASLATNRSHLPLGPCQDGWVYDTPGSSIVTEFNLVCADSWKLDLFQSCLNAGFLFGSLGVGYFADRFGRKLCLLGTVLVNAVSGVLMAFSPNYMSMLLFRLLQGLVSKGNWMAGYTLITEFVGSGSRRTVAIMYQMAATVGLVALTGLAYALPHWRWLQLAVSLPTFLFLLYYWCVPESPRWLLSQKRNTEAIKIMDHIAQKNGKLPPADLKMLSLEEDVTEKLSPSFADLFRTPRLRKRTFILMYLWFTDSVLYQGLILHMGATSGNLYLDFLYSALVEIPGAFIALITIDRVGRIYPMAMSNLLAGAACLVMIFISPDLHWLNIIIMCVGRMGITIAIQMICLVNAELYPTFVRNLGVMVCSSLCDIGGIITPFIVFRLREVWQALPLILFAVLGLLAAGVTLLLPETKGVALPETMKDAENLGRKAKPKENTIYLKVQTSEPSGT
Experimental: (§1) All experiments were carried out using transporter-overexpressing HEK293 cells. […] Cells were cultivated in Dulbecco’s Modified Eagle’s medium supplemented with 10% fetal calf serum, 100 U/ml penicillin, and 100 μg/ml streptomycin. Cells were passaged twice a week and kept in culture for no longer than 30 passages.
(§2) For uptake studies, 300,000 HEK293 cells were plated in each well of 24-well plates precoated with poly-D-lysine 48 prior to the experiment. On the day of the experiment, cells were washed once with prewarmed to 37 °C HBSS+ (Hank’s balanced salt solution supplemented with 10 mM Hepes, both Sigma-Aldrich). […] Uptake was stopped by adding ice-cold HBSS+ and cells were washed twice with ice-cold buffer before cell lysis was done using 80% acetonitrile containing an appropriate internal standard for eventual mass spectrometry. Relative quantification was done by comparison of transporter-overexpressing cells to empty vector–transfected controls. For uptake kinetic experiments, cells were incubated with increasing concentrations of substrate dissolved in HBSS+. Absolute quantification was done later by comparison to a standard curve in lysis buffer with known concentration.
(§3) Intracellular drug concentrations were detected and quantified by HPLC coupled to mass spectrometry. […] Substance-specific conditions were used to adjust the retention times of the analytes.
(§4) Transport ratios were determined as relative fold-increase of the uptake in transporter-overexpressing cells over empty vector–transfected control cells. For transport kinetic experiments, absolute substrate quantification was done by signal comparison to a standard curve with known concentrations. Net uptake was then determined by subtracting the uptake into empty vector–transfected cells from transporter-overexpressing cells. […] Vmax defines the maximum transport velocity, Km refers to the substrate concentration required to reach half vmax. The intrinsic clearance Clint is the ratio of vmax over Km.

OCT1 WT = target: T2, OCT1 WT (Homo sapiens, UniProt O15245); test: Uptake screening (transport ratio over empty vector), HEK293 cells overexpressing OCT1 WT; type: cell-based; design: expressed in transfected cells;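 also: intracellular substrate levels quantified by HPLC–tandem mass spectrometry after uptake in HBSS+ buffer at 37 °C, stable Flp-In HEK293 lines, fold change versus empty vector–transfected cells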
T2 sequence (O15245 1-554): T1 sequence (O15245 1-554 F244A) with A244F
Experimental: as §1, §2, §3, §4

[1] = Phe244Ala uptake relative to OCT1 WT
[2] = uptake ratio over empty vector, HEK293 cells overexpressing OCT1 Phe244Ala
[3] = uptake ratio over empty vector, HEK293 cells overexpressing OCT1 WT
[4] = uptake ratio of OCT1 Phe244Ala-overexpressing HEK293 cells over empty vector
[5] = uptake ratio of OCT1 WT-overexpressing HEK293 cells over empty vector
[6] = Phe244Ala uptake relative to WT

Row | Compound | relative_Phe244Ala_uptake_in% (OCT1 Phe244Ala variant; [1]) [%] | Mean_transport_ratio_Phe244Ala (OCT1 Phe244Ala variant; [2]) | Mean_transport_ratio_WT (OCT1 WT; [3]) | further results
1 | Cc1cc(C(C)(C)C)c(O)c(C)c1CC1=NCCN1 [Oxymetazoline] | 112.174 | 8.896 | 8.039 | –
2 | CN(C)CCc1c[nH]c2ccc(C[C@@H]3COC(=O)N3)cc12 [(R)-Zolmitriptan] | – | – | – | Mean_transport_ratio_Phe244Ala (OCT1 Phe244Ala variant): 13.515; relative_Phe244Ala_uptake_in% (OCT1 Phe244Ala variant): 37.478%; Mean_transport_ratio_WT (OCT1 WT): 34.392
3 | Oc1ccc(CC2NCCc3cc(O)c(O)cc32)cc1 (stereo not drawn) [Higenamine] | 44.661 | – | – | Mean_transport_ratio_Phe244Ala (OCT1 Phe244Ala variant; [4]): 13.029; Mean_transport_ratio_WT (OCT1 WT; [5]): 27.934
4 | CN(C)C(=O)Oc1cccc([N+](C)(C)C)c1 [Neostigmine] | 23.835 | – | – | Mean_transport_ratio_Phe244Ala (OCT1 Phe244Ala variant; [4]): 12.952; Mean_transport_ratio_WT (OCT1 WT; [5]): 51.144
5 | CC[N+](CC)(CC)Cc1ccccc1 [Benzyltriethylammonium] | – | 46.399 | 56.17 | relative_Phe244Ala_uptake_in% (OCT1 Phe244Ala variant; [6]): 82.289%
6 | CC(C)N(CCC(C(N)=O)(c1ccccc1)c1ccccn1)C(C)C (stereo not drawn) [Disopyramide] | – | 1.093 | 1.334 | relative_Phe244Ala_uptake_in% (OCT1 Phe244Ala variant; [6]): 27.882%
7 | CCN1CCCC1CNC(=O)c1cc(S(=O)(=O)CC)c(N)cc1OC (stereo not drawn) [Amisulpride] | – | 8.279 | 8.435 | relative_Phe244Ala_uptake_in% (OCT1 Phe244Ala variant; [6]): 97.893%
8 | CC(N)CCCC(C)(C)O (stereo not drawn) [Heptaminol] | 20.840 | – | – | Mean_transport_ratio_Phe244Ala (OCT1 Phe244Ala variant; [4]): 2.658; Mean_transport_ratio_WT (OCT1 WT; [5]): 8.957
9 | [H]/N=C(\N/C(=N/[H])Nc1ccc(Cl)cc1)NC(C)C [Proguanil] | 103.560 | 10.221 | 9.904 | –
10 | CNCCc1ccc(O)cc1 [N-Methyl-p-tyramine] | 12.133 | – | – | Mean_transport_ratio_Phe244Ala (OCT1 Phe244Ala variant; [4]): 1.688; Mean_transport_ratio_WT (OCT1 WT; [5]): 6.673
11 | COc1cc2c(cc1OC)-c1cc3ccc4c(c3c[n+]1CC2)OCO4 [Epiberberine] | – | 18.92 | 22.185 | relative_Phe244Ala_uptake_in% (OCT1 Phe244Ala variant; [6]): 84.587%
12 | Cc1ncccc1C(N)=O [Methylnicotinamide] | -6.232 | – | – | Mean_transport_ratio_Phe244Ala (OCT1 Phe244Ala variant; [4]): 0.82; Mean_transport_ratio_WT (OCT1 WT; [5]): 3.894
13 | N=C(N)NC(=O)c1nc(Cl)c(N)nc1N [Amiloride] | – | – | – | Mean_transport_ratio_Phe244Ala (OCT1 Phe244Ala variant): 23.504; relative_Phe244Ala_uptake_in% (OCT1 Phe244Ala variant): 61.492%; Mean_transport_ratio_WT (OCT1 WT): 37.597
14 | CCCCNC(=N)NC(=N)N [Buformin] | – | 14.865 | 33.648 | relative_Phe244Ala_uptake_in% (OCT1 Phe244Ala variant; [6]): 42.469%
15 | Nc1nc(=O)n([C@@H]2CS[C@H](CO)O2)cc1F [Emtricitabine] | – | 2.01 | 2.95 | relative_Phe244Ala_uptake_in% (OCT1 Phe244Ala variant; [6]): 51.794%
16 | C=CCN1CCCC1CNC(=O)c1cc(S(N)(=O)=O)cc(OC)c1OC (stereo not drawn) [Veralipride] | 478.904 | 5.345 | 1.907 | –
17 | O=C(O[C@H]1C[N+]2(CCCOc3ccccc3)CCC1CC2)C(O)(c1cccs1)c1cccs1 [(R)-Aclidinium] | – | 6.14 | 5.059 | relative_Phe244Ala_uptake_in% (OCT1 Phe244Ala variant; [6]): 126.640%
18 | C[n+]1ccc(-c2ccccc2)cc1 [MPP^+, 1-Methyl-4-phenylpyridinium] | 63.172 | – | – | Mean_transport_ratio_Phe244Ala (OCT1 Phe244Ala variant; [4]): 29.377; Mean_transport_ratio_WT (OCT1 WT; [5]): 45.919
19 | CNCCc1c[nH]c2ccc(O)cc12 [N-Methylserotonin] | 24.160 | – | – | Mean_transport_ratio_Phe244Ala (OCT1 Phe244Ala variant; [4]): 8.275; Mean_transport_ratio_WT (OCT1 WT; [5]): 31.114
20 | CC[N+](C)(C)c1cccc(O)c1 [Edrophonium] | – | 26.201 | 25.947 | relative_Phe244Ala_uptake_in% (OCT1 Phe244Ala variant; [6]): 101.017%
21 | COCCn1c2c([n+](Cc3cnccn3)c1C)C(=O)c1ccccc1C2=O [YM155] | 88.784 | 16.385 | 18.329 | –

Row | Compound | relative_Phe244Ala_uptake_in% (OCT1 Phe244Ala variant; [1]) [%] | Mean_transport_ratio_Phe244Ala (OCT1 Phe244Ala variant; [2]) | Mean_transport_ratio_WT (OCT1 WT; [3]) | further results
22 | CNC(C)Cc1ccc2c(c1)OCO2 (stereo not drawn) [3,4-Methylendioxy-N-methylamphetamin] | 158.013 | – | – | Mean_transport_ratio_Phe244Ala (OCT1 Phe244Ala variant; [4]): 2.142; Mean_transport_ratio_WT (OCT1 WT; [5]): 1.723
23 | CNCc1ccc(-c2[nH]c3cc(F)cc4c3c2CCNC4=O)cc1 [Rucaparib] | 161.437 | 2.644 | 2.018 | –
24 | CC[C@@H](CO)NCCN[C@@H](CC)CO [(S,S)-Ethambutol] | – | – | – | Mean_transport_ratio_Phe244Ala (OCT1 Phe244Ala variant): 11.185; relative_Phe244Ala_uptake_in% (OCT1 Phe244Ala variant): 49.465%; Mean_transport_ratio_WT (OCT1 WT): 21.59
25 | CN(C)c1ccc(/C=C/c2cc[n+](C)cc2)cc1 [ASP^+, 4-(4-(dimethylamino)styryl)-N-methylpyridinium] | – | 8.237 | 12.491 | relative_Phe244Ala_uptake_in% (OCT1 Phe244Ala variant; [6]): 62.977%
26 | C[C@H]1N=C(N(C)C)N=C(N)N1 [Imeglimin] | 25.831 | – | – | Mean_transport_ratio_Phe244Ala (OCT1 Phe244Ala variant; [4]): 9.177; Mean_transport_ratio_WT (OCT1 WT; [5]): 32.655
27 | c1c2c(cc3c1OCO3)-c1cc3ccc4c(c3c[n+]1CC2)OCO4 [Coptisine] | – | 10.972 | 12.003 | relative_Phe244Ala_uptake_in% (OCT1 Phe244Ala variant; [6]): 90.627%
28 | (-)-Sparteine | – | – | – | Mean_transport_ratio_Phe244Ala (OCT1 Phe244Ala variant): 4.411; relative_Phe244Ala_uptake_in% (OCT1 Phe244Ala variant): 84.604%; Mean_transport_ratio_WT (OCT1 WT): 5.032
29 | CNC(=C[N+](=O)[O-])NCCSCc1ccc(CN(C)C)o1 [Ranitidin] | 66.532 | 11.729 | 17.125 | –
30 | C[N+]1(C)[C@@H]2CC(OC(=O)C(O)(c3cccs3)c3cccs3)C[C@H]1[C@@H]1O[C@@H]12 (stereo partly drawn) [Thiotropium] | – | – | – | Mean_transport_ratio_Phe244Ala (OCT1 Phe244Ala variant): 35.339; relative_Phe244Ala_uptake_in% (OCT1 Phe244Ala variant): 101.472%; Mean_transport_ratio_WT (OCT1 WT): 34.841
31 | CNS(=O)(=O)Cc1ccc2[nH]cc(CCN(C)C)c2c1 [Sumatriptan] | 115.380 | 37.118 | 32.304 | –
32 | CC(=O)OC(C)C[N+](C)(C)C (stereo not drawn) [Acetyl-beta-Methylcholin] | – | 7.521 | 46.311 | relative_Phe244Ala_uptake_in% (OCT1 Phe244Ala variant; [6]): 14.392%
33 | CN(C)CCc1c[nH]c2ccc(CS(=O)(=O)N3CCCC3)cc12 [Almotriptan] | – | 4.279 | 3.882 | relative_Phe244Ala_uptake_in% (OCT1 Phe244Ala variant; [6]): 113.777%
34 | CC[N+](C)(CC)CCOC(=O)C(O)(c1ccccc1)C1CCCCC1 (stereo not drawn) [Oxyphenonium] | 124.905 | 40.516 | 32.636 | –
35 | CN(C)CCc1c[nH]c2ccc(C[C@H]3COC(=O)N3)cc12 [(S)-Zolmitriptan] | – | – | – | Mean_transport_ratio_Phe244Ala (OCT1 Phe244Ala variant): 8.091; relative_Phe244Ala_uptake_in% (OCT1 Phe244Ala variant): 24.350%; Mean_transport_ratio_WT (OCT1 WT): 30.121
36 | COc1cc2c(cc1OC)-c1cc3ccc(OC)c(OC)c3c[n+]1CC2 [Palmatin] | 65.326 | 4.951 | 7.047 | –
37 | CC(C)(C)NCC(O)c1ccc(O)c(CO)n1 (stereo not drawn) [Pirbuterol] | 79.364 | 54.212 | 68.047 | –
38 | CC[C@@H](CO)NCCN[C@@H](CC)CO [(R,R)-Ethambutol] | – | – | – | Mean_transport_ratio_Phe244Ala (OCT1 Phe244Ala variant): 16.298; relative_Phe244Ala_uptake_in% (OCT1 Phe244Ala variant): 60.253%; Mean_transport_ratio_WT (OCT1 WT): 26.39
39 | CNC[C@H](O)c1cccc(O)c1 [(R)-Phenylephrine] | 36.831 | 3.864 | 8.777 | –
40 | CCC(NC(C)C)C(O)c1ccc(O)c(O)c1 (stereo not drawn) [Isoetharine] | 103.988 | – | – | Mean_transport_ratio_Phe244Ala (OCT1 Phe244Ala variant; [4]): 16.355; Mean_transport_ratio_WT (OCT1 WT; [5]): 15.766
41 | CN1CCN(CC(=O)N2c3ccccc3C(=O)Nc3cccnc32)CC1 [Pirenzipin] | 803.892 | 8.32 | 1.911 | –
42 | Cc1cc(O)cc(C)c1OCC(C)N (stereo not drawn) [4-Hydroxy mexiletine] | 23.363 | – | – | Mean_transport_ratio_Phe244Ala (OCT1 Phe244Ala variant; [4]): 1.505; Mean_transport_ratio_WT (OCT1 WT; [5]): 3.163
